Source: patent publication US20050256103A1, “Indole derivative having piperidine ring” (Eisai Co., Ltd., priority 2004, published 2005)
Where two headings read alike, the source gives them in different places.

Tests used:
serotonin 1A receptor = target: T1, serotonin 1A receptor (Mus musculus, UniProt Q64264); test: Antagonistic effect on serotonin 1A receptor agonist (8-OH-DPAT)-induced hypothermia in mouse; type: in vivo; settings: CD-1 (ICR) male mice; inhibition of hypothermia by 8-OH-DPAT 0.5 mg/kg sc; test substance 15 minutes before agonist
T1 construct: into the rectum of CD-1 (ICR) male mice (25-45 g); from tissue; host or cells: living CD-1 (ICR) male mice (in vivo)
T1 sequence (Q64264 1-421): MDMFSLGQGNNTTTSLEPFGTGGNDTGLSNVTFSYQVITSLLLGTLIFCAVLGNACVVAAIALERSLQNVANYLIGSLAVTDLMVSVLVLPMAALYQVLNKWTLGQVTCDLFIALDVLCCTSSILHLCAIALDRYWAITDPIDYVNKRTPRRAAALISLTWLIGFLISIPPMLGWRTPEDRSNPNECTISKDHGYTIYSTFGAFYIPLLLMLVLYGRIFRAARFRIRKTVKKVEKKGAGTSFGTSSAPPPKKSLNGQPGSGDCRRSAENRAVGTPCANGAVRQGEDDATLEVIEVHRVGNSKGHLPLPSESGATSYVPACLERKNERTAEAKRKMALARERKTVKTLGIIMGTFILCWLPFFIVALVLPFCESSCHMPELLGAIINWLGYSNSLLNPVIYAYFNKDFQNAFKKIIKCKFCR
Description: (1) A thermistor probe was inserted at a depth of approximately 2 cm into the rectum of CD-1 (ICR) male mice (25-45 g), so as to measure the body temperature thereof. Body temperature is decreased by subcutaneous administration of serotonin 1A receptor agonist (8-hydroxy-dipropylaminotetralin (8-OH-DPAT) 0;5 mg/kg. Since a serotonin 1A antagonist inhibits such action, the antagonistic effect of a test substance to a serotonin 1A receptor was evaluated using the inhibitory effect of the hypothermia as an index. The test results are shown in Table 2 indicated below. A test substance was administered 15 minutes before the administration of the serotonin 1A agonist. A serotonin 1A partial agonist alone decreases the body temperature, depending on the degree of the agonistic action thereof. In addition, it has a weak antagonistic effect on 8-OH-DPAT-induced hypothermia.

5-HT1A receptor = target: T2, 5-HT1A receptor (Sus scrofa, UniProt A0A4X1UTF5); test: Affinity for serotonin 1A receptor: inhibition of [3H]MPPF binding in swine hippocampal membrane fraction; settings: for IC50: swine hippocampal membrane, 37°C 30 min; for L/H ratio: low affinity IC50 divided by high affinity IC50, 1 or smaller = no intrinsic activity, 2 or greater = intrinsic activity
T2 construct: Swine hippocampus was homogenized in a 50 mM Tris-Hcl buffer; from tissue; host or cells: swine hippocampus, membrane fraction
T2 sequence (A0A4X1UTF5 1-422): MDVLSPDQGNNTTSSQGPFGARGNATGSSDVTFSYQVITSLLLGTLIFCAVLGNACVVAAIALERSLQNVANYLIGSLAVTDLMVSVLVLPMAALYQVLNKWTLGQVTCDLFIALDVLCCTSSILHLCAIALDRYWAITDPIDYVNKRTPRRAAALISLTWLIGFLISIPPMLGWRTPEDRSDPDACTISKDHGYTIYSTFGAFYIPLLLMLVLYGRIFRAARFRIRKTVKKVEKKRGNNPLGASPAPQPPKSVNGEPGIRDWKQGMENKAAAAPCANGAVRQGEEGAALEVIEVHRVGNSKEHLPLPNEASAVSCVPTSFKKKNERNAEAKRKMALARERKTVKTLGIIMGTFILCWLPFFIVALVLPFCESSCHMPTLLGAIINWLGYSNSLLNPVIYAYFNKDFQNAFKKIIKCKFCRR
Source text: (1) The affinity of a test substance for a 5-HT1A receptor was examined by an inhibition experiment, in which the inhibitory effect of the test substance against the binding of [^3H]-4-(2′-methoxy)phenyl-1-(2′-(N-2″-pyridinyl)-p-fluorobenzamido)ethyl-piperazine (MPPF) that selectively binds to the 5-HT1A receptor in a swine hippocampal membrane fraction was examined. The 5-HT1A receptor that is a G-protein binding receptor becomes a G-protein binding state with addition of MgCl2. In contrast, it becomes a G-protein non-binding state with addition of guanylylimido diphosphate (Gpp(NH)p). […] Thus, both the affinity of a test substance to the receptor that was in a state of not binding to the G-protein and the affinity of the test substance to the receptor that was in a state of binding to the G-protein were obtained. Then, the obtained values were compared to each other, so as to estimate the level of the intrinsic activity of the test substance. Theoretically, when the value (L/H) obtained by dividing the affinity of a test substance to the receptor that is in a low affinity state (IC50 value) by the affinity of a test substance to the receptor that is in a high affinity state (IC50 value) is 1 or less, the intrinsic activity thereof is zero. The greater this value, the higher the intrinsic activity that can be obtained.
Swine hippocampus was homogenized in a 50 mM Tris-Hcl buffer (pH 7.4; hereinafter referred to as buffer A) that had been cooled on ice. The suspension was centrifuged at 40,000×g for 15 minutes. The obtained pellet was suspended in buffer solution A, and the thus obtained solution was then centrifuged at 40,000×g for 15 minutes. The same operation was repeated 2 or 3 times. The finally obtained pellet was suspended in a buffer solution A in an amount 10 times the wet weight of the swine hippocampus, so as to obtain a membrane fraction. The obtained membrane fraction was stored at −80° C. until use.
A mixture (0.5 ml) used for incubation comprised an appropriate amount of the membrane fraction, a test substance with a desired concentration, MgCl2 (final concentration: 10 mM) or Gpp(NH)p (final concentration: 1 mM), [^3H]MPPF (final concentration: 0.5 nM), dimethyl sulfoxide (final concentration: 1% (v/v)), and a 50 mM Tris-Hcl buffer (pH 7.4). The reaction was initiated with addition of the membrane fraction, and the mixture was incubated at 37° C. for 30 minutes. After completion of the incubation, the mixture was subjected to vacuum filtration with a glass filter, using Cell Harvester. The filter was washed with buffer solution A that had been cooled on ice. Thereafter, radioactivity binding to the receptor was measured with a liquid scintillation counter. Non-specific binding was defined as binding detected in the presence of 10 μM WAY-100,635.

[1] = [3H]MPPF 0.5 nM, receptor in high affinity (G-protein binding, MgCl2 10 mM) state, read-out: High affinity IC50
[2] = [3H]MPPF 0.5 nM, receptor in low affinity (G-protein non-binding, Gpp(NH)p 1 mM) state, read-out: Low affinity IC50

Compound	ED50 (serotonin 1A receptor)	IC50 (5-HT1A receptor; [1])	IC50 (5-HT1A receptor; [2])	L/H ratio (5-HT1A receptor)	IC50 (5-HT1A receptor; High affinity IC50, [3H]MPPF 0.5 nM, receptor in high affinity (G-protein binding, MgCl2 10 mM) state)	IC50 (5-HT1A receptor; Low affinity IC50, [3H]MPPF 0.5 nM, receptor in low affinity (G-protein non-binding, Gpp(NH)p 1 mM) state)
COc1ccc2c(=O)c(C)c(C)oc2c1CCN1CCC(n2ccc3ccc(C(N)=O)cc32)CC1 [Compound 36, 1-{1-[2-(7-methoxy-2,3-dimethyl-4-oxo-4H-chromen-8-yl)ethyl]piperidin-4-yl}-1H-indole-6-carboxamide]	0.2 mg/kg, sc	0.26 nM	0.14 nM	0.5		
CNC(=O)c1ccc2ccn(C3CCN(CCc4cc5c(cc4OC)CCN(C)C5=O)CC3)c2c1 [Compound 38, 1-{1-[2-(6-methoxy-2-methyl-1-oxo-1,2,3,4-tetrahydroisoquinolin-7-yl)ethyl]piperidin-4-yl}-N-methyl-1H-indole-6-carboxamide]	0.19 mg/kg, sc	0.2 nM	0.13 nM	0.7		
COc1ccc2ccccc2c1CCN1CCC(n2ccc3ccc(C(N)=O)cc32)CC1 [Compound 44, 1-{1-[2-(2-methoxynaphthalen-1-yl)ethyl]piperidin-4-yl}-1H-indole-6-carboxamide]	0.41 mg/kg, sc	0.4 nM	0.47 nM	1.2		
COc1cc2ccccc2cc1CCN1CCC(n2ccc3ccc(C(N)=O)cc32)CC1 [Compound 45, 1-{1-[2-(3-methoxynaphthalen-2-yl)ethyl]piperidin-4-yl}-1H-indole-6-carboxamide]	0.26 mg/kg, sc	0.58 nM	0.69 nM	1.2		
COc1ccc2c(c1CCN1CCC(n3ccc4ccc(C(N)=O)cc43)CC1)OCCC2O (stereo not drawn) [Compound 46, 1-{1-[2-(4-hydroxy-7-methoxychroman-8-yl)ethyl]piperidin-4-yl}-1H-indole-6-carboxamide]	0.3 mg/kg, sc	0.24 nM	0.33 nM	1.4		
COc1ccc2c(c1CCN1CCC(n3ccc4ccc(C(N)=O)cc43)CC1)OCCC2=O [Compound 47, 1-{1-[2-(7-methoxy-4-oxochroman-8-yl)ethyl]piperidin-4-yl}-1H-indole-6-carboxamide]	0.21 mg/kg, sc	0.23 nM	0.23 nM	1		
CNC(=O)c1ccc2ccn(C3CCN(CCc4c(OC)ccc5c4OC(C)(C)CC5O)CC3)c2c1 (stereo not drawn) [Compound 48, 1-{1-[2-(4-hydroxy-7-methoxy-2,2-dimethylchroman-8-yl)ethyl]piperidin-4-yl}-N-methyl-1H-indole-6-carboxamide]	0.06 mg/kg, sc	1.2 nM	1.1 nM	0.9		
COc1ccc2c(c1CCN1CCC(n3ccc4ccc(C(N)=O)cc43)CC1)CCC2O (stereo not drawn) [Compound 49, 1-{1-[2-(1-hydroxy-5-methoxyindan-4-yl)ethyl]piperidin-4-yl}-1H-indole-6-carboxamide]	0.28 mg/kg, sc	0.22 nM	0.27 nM	1.2		
COc1cc2cccnc2cc1CCN1CCC(n2ccc3ccc(C(N)=O)cc32)CC1 [Compound 51, 1-{1-[2-(6-methoxyquinolin-7-yl)ethyl]piperidin-4-yl}-1H-indole-6-carboxamide]	0.66 mg/kg, sc			0.9	0.18 nM	0.17 nM
COc1cc2c(cc1CCN1CCC(n3ccc4ccc(C(N)=O)cc43)CC1)N(C(C)=O)CCC2 [Compound 52, 1-{1-[2-(1-acetyl-6-methoxy-1,2,3,4-tetrahydroquinolin-7-yl)ethyl]piperidin-4-yl}-1H-indole-6-carboxamide]	0.5 mg/kg, sc	0.22 nM	0.2 nM	0.9		
COc1cc2c(cc1CCN1CCC(n3ccc4ccc(C(N)=O)cc43)CC1)N(C)CCC2 [Compound 53, 1-{1-[2-(6-methoxy-1-methyl-1,2,3,4-tetrahydroquinolin-7-yl)ethyl]piperidin-4-yl}-1H-indole-6-carboxamide]	0.3 mg/kg, sc	0.31 nM	0.46 nM	1.5		
COc1ccc2c(c1CCN1CCC(n3ccc4ccc(C(N)=O)cc43)CC1)CCCN2C(C)=O [Compound 54, 1-{1-[2-(1-acetyl-6-methoxy-1,2,3,4-tetrahydroquinolin-5-yl)ethyl]piperidin-4-yl}-1H-indole-6-carboxamide]	0.84 mg/kg, sc	0.18 nM	0.13 nM	0.7		
COc1cc2c(cc1CCN1CCC(n3ccc4ccc(C(N)=O)cc43)CC1)N(C)C(=O)CC2 [Compound 57, 1-{1-[2-(6-methoxy-1-methyl-2-oxo-1,2,3,4-tetrahydroquinolin-7-yl)ethyl]piperidin-4-yl}-1H-indole-6-carboxamide]	0.1 mg/kg, sc	0.18 nM	0.24 nM	1.3		
CNC(=O)c1ccc2ccn(C3CCN(CCc4cc5c(cc4OC)CCC(=O)N5C)CC3)c2c1 [Compound 58, 1-{1-[2-(6-methoxy-1-methyl-2-oxo-1,2,3,4-tetrahydroquinolin-7-yl)ethyl]piperidin-4-yl}-N-methyl-1H-indole-6-carboxamide]	0.53 mg/kg, sc	0.33 nM	0.39 nM	1.2		
CCN1C(=O)CCc2cc(OC)c(CCN3CCC(n4ccc5ccc(C(N)=O)cc54)CC3)cc21 [Compound 59, 1-{1-[2-(1-ethyl-6-methoxy-2-oxo-1,2,3,4-tetrahydroquinolin-7-yl)ethyl]piperidin-4-yl}-1H-indole-6-carboxamide]	0.3 mg/kg, sc	0.19 nM	0.12 nM	0.6		
